{
  "source": "ChEMBL document CHEMBL1201862",
  "about": "“PubChem BioAssay data set” (2004)",
  "key": {"[1]": {"assay": "P. falciparum late gametocyte killing, dose response, luminescence (AID 1117278);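 also: gametocytes exposed to compound for 24 hours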", "assay_type": "functional, cell-based"}, "[2]": {"assay": "Jurkat T cell cytotoxicity, dose response, cytotoxicity control for P. falciparum gametocyte viability project, luminescence (AID 1117277);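 also: potency reflects loss of cellular ATP meaning fewer viable cells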", "assay_type": "functional, cell-based"}, "[3]": {"assay": "Late stage results for the probe development effort to identify inhibitors of Plasmodium falciparum gametocytes: Luminescence-based cell-based high throughput dose response assay to identify inhibitors of viability of late stage Plasmodium falciparum gametocytes.", "assay_type": "functional"}, "[4]": {"biological_target": "T1, Small ubiquitin-related modifier 1 (Homo sapiens, UniProt P63165)", "T1 sequence (P63165 whole entry)": "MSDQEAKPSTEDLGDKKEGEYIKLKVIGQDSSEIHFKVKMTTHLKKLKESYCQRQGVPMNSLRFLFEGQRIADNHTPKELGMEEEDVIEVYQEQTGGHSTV", "assay": "inhibitors of SUMO1 partner interactions, dose response, biochemical, FRET (AID 624383)", "assay_type": "functional", "conditions": "read-out: IC50_Mean"}, "[5]": {"biological_target": "T1, Small ubiquitin-related modifier 1", "assay": "inhibitors of SUMO1 peptide binding, dose response, biochemical, fluorescence polarization, uHTS hits (AID 624382)", "assay_type": "functional", "conditions": "read-out: IC50_Mean"}, "[6]": {"biological_target": "Caspase-6 (Homo sapiens, UniProt P55212)", "sequence (P55212 24-179 limits assumed)": "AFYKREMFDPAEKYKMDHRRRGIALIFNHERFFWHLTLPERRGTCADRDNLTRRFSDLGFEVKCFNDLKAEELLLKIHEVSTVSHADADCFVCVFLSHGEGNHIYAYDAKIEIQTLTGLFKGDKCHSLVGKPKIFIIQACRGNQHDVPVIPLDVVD", "sequence (P55212 194-293 limits assumed)": "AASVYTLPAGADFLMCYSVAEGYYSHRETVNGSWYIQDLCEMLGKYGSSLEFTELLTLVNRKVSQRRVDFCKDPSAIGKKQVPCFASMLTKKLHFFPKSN", "assay": "human caspase-6 inhibitors, dose response, biochemical, VEID-R110 fluorescence, cherry-pick (AID 720632)"}, "[7]": {"biological_target": "T2, Histone-lysine N-methyltransferase NSD2 (Homo sapiens, UniProt O96028)", "T2 sequence (O96028 whole entry)": "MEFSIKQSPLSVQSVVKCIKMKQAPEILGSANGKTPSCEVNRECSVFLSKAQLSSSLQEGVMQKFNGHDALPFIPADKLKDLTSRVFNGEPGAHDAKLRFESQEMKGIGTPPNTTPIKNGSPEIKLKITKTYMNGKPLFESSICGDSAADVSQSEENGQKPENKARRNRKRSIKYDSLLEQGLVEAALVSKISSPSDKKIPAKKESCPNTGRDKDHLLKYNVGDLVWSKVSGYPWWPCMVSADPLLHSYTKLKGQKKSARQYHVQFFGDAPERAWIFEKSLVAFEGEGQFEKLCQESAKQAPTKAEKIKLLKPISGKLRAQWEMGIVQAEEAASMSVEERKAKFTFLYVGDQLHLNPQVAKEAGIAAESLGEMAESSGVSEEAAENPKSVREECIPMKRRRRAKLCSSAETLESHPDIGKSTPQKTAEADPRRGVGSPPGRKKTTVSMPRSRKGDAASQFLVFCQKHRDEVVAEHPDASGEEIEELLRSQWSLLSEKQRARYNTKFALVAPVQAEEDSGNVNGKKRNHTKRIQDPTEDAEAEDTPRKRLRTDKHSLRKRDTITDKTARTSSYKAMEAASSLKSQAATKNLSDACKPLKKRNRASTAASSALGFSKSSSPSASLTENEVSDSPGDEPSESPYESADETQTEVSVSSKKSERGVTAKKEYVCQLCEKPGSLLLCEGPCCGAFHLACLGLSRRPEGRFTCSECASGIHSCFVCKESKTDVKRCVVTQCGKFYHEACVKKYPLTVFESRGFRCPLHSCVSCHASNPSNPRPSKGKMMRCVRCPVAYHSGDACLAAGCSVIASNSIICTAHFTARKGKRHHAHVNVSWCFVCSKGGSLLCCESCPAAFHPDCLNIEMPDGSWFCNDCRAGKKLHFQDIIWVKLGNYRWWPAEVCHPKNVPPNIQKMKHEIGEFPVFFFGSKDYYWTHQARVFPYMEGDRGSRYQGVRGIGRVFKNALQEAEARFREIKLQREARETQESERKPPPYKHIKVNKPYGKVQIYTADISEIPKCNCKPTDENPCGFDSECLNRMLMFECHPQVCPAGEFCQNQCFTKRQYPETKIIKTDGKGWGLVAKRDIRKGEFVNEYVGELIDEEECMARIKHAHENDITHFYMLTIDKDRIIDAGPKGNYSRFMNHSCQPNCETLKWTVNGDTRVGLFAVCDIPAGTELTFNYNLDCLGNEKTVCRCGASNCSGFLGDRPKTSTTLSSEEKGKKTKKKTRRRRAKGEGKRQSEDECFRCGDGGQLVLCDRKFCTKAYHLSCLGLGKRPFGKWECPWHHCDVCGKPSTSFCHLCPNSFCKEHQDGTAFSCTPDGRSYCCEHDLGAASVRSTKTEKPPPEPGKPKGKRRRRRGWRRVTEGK", "assay_type": "biochemical"}, "[8]": {"biological_target": "T3, Dual specificity protein phosphatase 6 (Rattus norvegicus, UniProt Q64346)", "T3 sequence (Q64346 whole entry)": "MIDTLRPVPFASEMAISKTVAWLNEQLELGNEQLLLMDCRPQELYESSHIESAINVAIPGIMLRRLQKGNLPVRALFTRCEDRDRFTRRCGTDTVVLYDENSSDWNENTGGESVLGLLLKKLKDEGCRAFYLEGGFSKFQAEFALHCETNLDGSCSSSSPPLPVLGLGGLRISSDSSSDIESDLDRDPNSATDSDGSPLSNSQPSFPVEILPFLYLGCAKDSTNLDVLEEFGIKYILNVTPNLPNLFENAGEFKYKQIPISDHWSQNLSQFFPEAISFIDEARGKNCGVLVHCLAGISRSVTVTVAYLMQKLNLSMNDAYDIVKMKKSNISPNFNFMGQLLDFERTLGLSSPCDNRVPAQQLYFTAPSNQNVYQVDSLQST", "assay": "MKP-3 phosphatase inhibitors, primary screen, biochemical, rat enzyme, in vitro (AID 425)"}, "[9]": {"biological_target": "E3 ubiquitin-protein ligase UHRF1 (Homo sapiens, UniProt Q96T88)", "sequence (Q96T88 whole entry, the tested form may be a part)": "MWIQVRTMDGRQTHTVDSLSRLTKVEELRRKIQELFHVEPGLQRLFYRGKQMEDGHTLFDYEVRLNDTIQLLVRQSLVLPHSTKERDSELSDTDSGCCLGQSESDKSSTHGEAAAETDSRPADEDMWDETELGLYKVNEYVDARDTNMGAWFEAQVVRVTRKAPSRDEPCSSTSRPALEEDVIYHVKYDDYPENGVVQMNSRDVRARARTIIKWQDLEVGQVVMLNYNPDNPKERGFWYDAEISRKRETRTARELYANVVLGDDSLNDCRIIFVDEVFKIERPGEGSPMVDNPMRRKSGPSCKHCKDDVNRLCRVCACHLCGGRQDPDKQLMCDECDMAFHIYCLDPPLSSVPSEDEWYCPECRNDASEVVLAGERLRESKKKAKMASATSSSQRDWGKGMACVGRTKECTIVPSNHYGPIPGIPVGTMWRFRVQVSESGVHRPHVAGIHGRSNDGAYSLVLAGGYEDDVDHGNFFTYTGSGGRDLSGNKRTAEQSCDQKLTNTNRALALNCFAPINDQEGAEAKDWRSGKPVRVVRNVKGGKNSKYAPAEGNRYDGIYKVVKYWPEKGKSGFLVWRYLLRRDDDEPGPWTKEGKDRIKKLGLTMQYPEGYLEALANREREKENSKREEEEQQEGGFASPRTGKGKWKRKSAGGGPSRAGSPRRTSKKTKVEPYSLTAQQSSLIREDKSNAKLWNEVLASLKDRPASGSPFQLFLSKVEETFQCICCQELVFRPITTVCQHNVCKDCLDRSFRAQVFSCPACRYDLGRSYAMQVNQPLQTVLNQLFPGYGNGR", "assay": "Counterscreen for inhibitors of 5-meCpG-binding domain protein 2 (MBD2): TRFRET-based biochemical high throughput dose response assay to identify inhibitors of binding of ubiquitin-like with PHD and ring finger domains 1 (UHRF1) to methylated oligonucleotide."}, "[10]": {"biological_target": "Glutathione-S-transferase (Schistosoma japonicum, UniProt Q26513)", "sequence (Q26513 whole entry)": "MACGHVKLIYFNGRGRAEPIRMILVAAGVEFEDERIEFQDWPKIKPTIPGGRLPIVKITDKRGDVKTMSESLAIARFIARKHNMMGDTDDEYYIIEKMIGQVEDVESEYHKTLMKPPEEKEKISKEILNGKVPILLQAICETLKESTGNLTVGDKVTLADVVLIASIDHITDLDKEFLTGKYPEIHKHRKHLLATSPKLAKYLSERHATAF", "assay": "biotin-GST/anti-GST TR-FRET signal inhibitors, dose response, artefact control for Vif-APOBEC3G degradation inhibitor project, biochemical (AID 1117362)", "assay_type": "functional"}, "[11]": {"assay": "cells"}, "[12]": {"biological_target": "T4, Protein skinhead-1 (Caenorhabditis elegans, UniProt P34707)", "T4 sequence (P34707 whole entry)": "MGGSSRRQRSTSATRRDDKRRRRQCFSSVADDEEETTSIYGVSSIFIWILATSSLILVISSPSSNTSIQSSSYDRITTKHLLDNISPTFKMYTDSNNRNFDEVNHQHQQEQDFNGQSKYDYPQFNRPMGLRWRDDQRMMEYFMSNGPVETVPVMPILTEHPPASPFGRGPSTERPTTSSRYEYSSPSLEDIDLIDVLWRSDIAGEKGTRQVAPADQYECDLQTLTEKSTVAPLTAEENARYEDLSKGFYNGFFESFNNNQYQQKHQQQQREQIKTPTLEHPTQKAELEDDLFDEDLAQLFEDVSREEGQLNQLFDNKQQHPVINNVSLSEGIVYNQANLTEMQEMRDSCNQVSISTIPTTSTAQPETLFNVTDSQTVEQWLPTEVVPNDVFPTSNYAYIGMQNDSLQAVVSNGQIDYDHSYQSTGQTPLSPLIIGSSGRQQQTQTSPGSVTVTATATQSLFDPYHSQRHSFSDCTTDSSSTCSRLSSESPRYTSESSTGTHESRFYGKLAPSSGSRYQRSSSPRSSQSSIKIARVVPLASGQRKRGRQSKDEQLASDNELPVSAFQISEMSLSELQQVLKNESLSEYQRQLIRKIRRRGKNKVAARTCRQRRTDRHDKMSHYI", "assay_type": "functional"}, "[13]": {"biological_target": "T5, Oxysterols receptor LXR-beta (Homo sapiens, UniProt P55055)", "T5 sequence (P55055 whole entry)": "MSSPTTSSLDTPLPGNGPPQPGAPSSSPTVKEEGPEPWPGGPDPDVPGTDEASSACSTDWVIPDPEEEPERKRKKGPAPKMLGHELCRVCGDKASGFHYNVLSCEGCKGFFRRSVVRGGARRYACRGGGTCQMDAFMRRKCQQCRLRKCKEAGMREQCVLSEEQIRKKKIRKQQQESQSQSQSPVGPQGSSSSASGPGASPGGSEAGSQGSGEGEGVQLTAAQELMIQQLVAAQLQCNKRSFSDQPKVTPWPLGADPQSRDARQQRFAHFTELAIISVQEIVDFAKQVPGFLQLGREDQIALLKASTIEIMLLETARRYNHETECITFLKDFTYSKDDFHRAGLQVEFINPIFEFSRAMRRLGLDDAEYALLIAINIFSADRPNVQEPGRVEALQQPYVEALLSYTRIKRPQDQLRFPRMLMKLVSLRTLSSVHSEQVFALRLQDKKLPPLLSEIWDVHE", "assay_type": "functional, cell-based"}, "[14]": {"assay": "inhibitors of LMP1-driven NF-kB reporter, dose response, cell-based, EBV LMP1, luciferase, dry powder, set 2 (AID 624361)", "assay_type": "functional"}, "[15]": {"biological_target": "NAD-dependent protein deacylase sirtuin-5, mitochondrial (Homo sapiens, UniProt Q9NXA8)", "sequence (Q9NXA8 whole entry)": "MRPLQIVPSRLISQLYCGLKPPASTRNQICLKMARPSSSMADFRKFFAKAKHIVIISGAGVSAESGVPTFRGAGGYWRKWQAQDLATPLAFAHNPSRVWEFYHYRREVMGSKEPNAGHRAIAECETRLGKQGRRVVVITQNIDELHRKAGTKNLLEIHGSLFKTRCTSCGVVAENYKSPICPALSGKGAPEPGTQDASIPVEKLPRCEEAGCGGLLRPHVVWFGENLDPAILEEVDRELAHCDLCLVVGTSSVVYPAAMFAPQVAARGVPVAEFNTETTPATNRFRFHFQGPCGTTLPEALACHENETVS", "assay": "SIRT5 deacylase inhibitors, dose response, biochemical, fluorescence imaging, cherry-pick, set 6 (AID 720597)"}, "[16]": {"assay": "inhibitors of non-replicating M. tuberculosis, dose response, luciferase, dry powder (AID 651619)", "assay_type": "functional", "conditions": "Mycobacterium tuberculosis"}, "[17]": {"assay": "inhibitors of non-replicating M. tuberculosis, dose response, luciferase, dry powder (AID 651620)", "assay_type": "functional", "conditions": "Mycobacterium tuberculosis"}},
  "note": "The source made the active and inactive calls.",
  "data": [
    {"compound": "O=C(Nc1nccs1)c1cn(-c2ccccc2)nc1-c1ccncc1", "values": [
      {"measurement": "IC50", "setting": "[1]", "result": "9.12 µM (active)"},
      {"measurement": "IC50", "setting": "[2]", "result": "> 83.3 µM (inactive)"},
      {"measurement": "IC50", "setting": "[3]", "result": "> 37.2 µM (inactive)"}
    ]},
    {"compound": "CCCCn1c(NC(=O)c2ccccc2)c(C#N)c2nc3ccccc3nc21", "values": [
      {"measurement": "IC50", "setting": "[4]", "result": "17.4 µM (active)"},
      {"measurement": "IC50", "setting": "[5]", "result": "> 66.6 µM (inactive)"},
      {"measurement": "AC50", "setting": "[6]", "result": "47.4 µM (active)"},
      {"measurement": "AC50", "setting": "[7]", "result": "2.61 µM (active)"},
      {"measurement": "IC50", "setting": "[8]", "result": "> 100 µM (not active)"},
      {"measurement": "IC50", "setting": "[9]", "result": "> 43.8 µM (inactive)"}
    ]},
    {"compound": "Cc1nc2c(Cl)cccc2c(O)c1CN1CCCC1", "values": [
      {"measurement": "IC50", "setting": "[10]", "result": "> 100 µM (active)"}
    ]},
    {"compound": "Fc1ccc(-c2nnc(-c3ccc4ccccc4c3)o2)cc1", "values": [
      {"measurement": "EC50", "setting": "[11]", "result": "> 67.5 µM (inactive)"},
      {"measurement": "IC50", "setting": "[12]", "result": "> 100 µM (inactive)"},
      {"measurement": "EC50", "setting": "[13]", "result": "> 67.5 µM (inactive)"}
    ]},
    {"compound": "Cc1noc(C)c1S(=O)(=O)Nc1ccc2c(c1)C(=O)N([C@H](C)CO)C[C@@H](C)[C@H](CN(C)Cc1ccc(C(F)(F)F)cc1)OCCCC[C@@H](C)O2", "values": [
      {"measurement": "AbsAC35", "setting": "[14]", "result": 39.54, "unit": "µM"},
      {"measurement": "AC50", "setting": "[15]", "result": "> 30 µM (inactive)"}
    ]},
    {"compound": "[O-][n+]1ccccc1CSc1nnc(-c2ccccc2)o1", "values": [
      {"measurement": "IC90", "setting": "[16]", "result": "31 µM (active)"},
      {"measurement": "IC90", "setting": "[17]", "result": "31 µM (active)"}
    ]}
  ]
}
